According to article PMC6060096, “Novel 3D Structure Based Model for Activity Prediction and Design of Antimicrobial Peptides” (Scientific Reports, 2018):
Converted amounts (≈) assume the structure as drawn. Residues, ends and D or L forms follow the SMILES beside them.

How the values were obtained:
Type in all cases: cell-based
[1] = test system: Staphylococcus aureus (CMCC(B)26003); test: microbe, parasite or virus in culture
Experimental: (§1) The experimentally determined strains are as follows: Listeria monocytogenes (ATCC 19115), Staphylococcus aureus (CMCC(B)26003), Bacillus subtilis (CMCC(B)63501), Escherichia coli (CMCC(B) 44102), Pseudomonas aeruginosa (CMCC(B)10104), Enterococcus faecalis (clinical strains) from China Pharmaceutical University Microbiology Laboratory. Minimal inhibitory concentration(MIC) of peptides were determined using broth microdilution method. Two-fold serial dilutions of eight peptides were prepared from 1024.0 to 1.0 μg/ml in 96-well microtiter plate (100.0 μl of each well). Then peptide dilutions were mixed with LB broth and bacterial culture (100.0 μl) containing 2.0 × 10^5 CFU/ml. Final peptide concentrations ranged from 0.5 to 512.0 μg/ml. The final bacterial concentration was approximately 1.0 × 10^5 CFU/ml. Positive controls were incubated with Cefuroxime instead of peptide, at concentrations from 0.5 to 512.0 μg/ml. Negative and blank controls were incubated, respectively, with sterile deionized water or only LB broth. Microtiter plates were incubated at 37 °C for 24 h under normal atmospheric conditions. OD600 was measured using a microplate spectrophotometer (Multiskan GO, Thermo Scientific, USA). MIC was recorded as the endpoint where no difference of OD600 could be detected with respect to the blank LB broth. MIC assays were performed three times for all strains.

[2] = test system: Bacillus subtilis (CMCC(B)63501); test: microbe, parasite or virus in culture
Experimental: as §1

[3] = test system: Escherichia coli (CMCC(B) 44102); test: microbe, parasite or virus in culture
Experimental: as §1

[4] = test system: Pseudomonas aeruginosa (CMCC(B)10104); test: microbe, parasite or virus in culture
Experimental: as §1

[5] = test system: Listeria monocytogenes (ATCC 19115); test: microbe, parasite or virus in culture
Experimental: as §1

[6] = test system: Enterococcus faecalis (clinical strains); test: MIC, broth microdilution; details: LB broth, ~1.0 × 10^5 CFU/ml, 0.5 to 512.0 μg/ml, 37 °C, 24 h, OD600, performed three times
Experimental: as §1

| Compound | MIC Staphylococcus aureus ([1]; CMCC(B)26003, 24 h) | MIC Listeria monocytogenes ([5]; ATCC 19115, 24 h) | MIC Bacillus subtilis ([2]; CMCC(B)63501, 24 h) | other results |
| --- | --- | --- | --- | --- |
| CO/N=C(\C(=O)N[C@@H]1C(=O)N2C(C(=O)O)=C(COC(N)=O)CS[C@H]12)c1ccco1 [Cefuroxime, reference compound] |  |  |  | MIC ([1]; Staphylococcus aureus, CMCC(B)26003, broth microdilution, LB broth, ~1.0 × 10^5 CFU/ml, 0.5 to 512.0 μg/ml, 37 °C, 24 h, OD600, performed three times): 4 µg/mL (≈ 9.43 µM); MIC ([2]; Bacillus subtilis, CMCC(B)63501, broth microdilution, LB broth, ~1.0 × 10^5 CFU/ml, 0.5 to 512.0 μg/ml, 37 °C, 24 h, OD600, performed three times): ≤ 0.5 µg/mL; MIC ([3]; Escherichia coli, CMCC(B) 44102, broth microdilution, LB broth, ~1.0 × 10^5 CFU/ml, 0.5 to 512.0 μg/ml, 37 °C, 24 h, OD600, performed three times): 8 µg/mL (≈ 18.9 µM); MIC ([4]; Pseudomonas aeruginosa, CMCC(B)10104, broth microdilution, LB broth, ~1.0 × 10^5 CFU/ml, 0.5 to 512.0 μg/ml, 37 °C, 24 h, OD600, performed three times): > 512 µg/mL; MIC ([5]; Listeria monocytogenes, ATCC19115, ATCC 19115, broth microdilution, LB broth, ~1.0 × 10^5 CFU/ml, 0.5 to 512.0 μg/ml, 37 °C, 24 h, OD600, performed three times): 4 µg/mL (≈ 9.43 µM); MIC ([6]; Enterococcus faecalis): 16 µg/mL (≈ 37.7 µM) |
| CC[C@H](C)[C@H](NC(=O)[C@H](CCCNC(=N)N)NC(=O)[C@H](CCCNC(=N)N)NC(=O)[C@H](CC(C)C)NC(=O)[C@@H](N)Cc1ccccc1)C(=O)N[C@@H](CCCNC(=N)N)C(=O)N[C@H](C(N)=O)C(C)C [FLRRIRV-NH2] (H-FLRRIRV-NH2) | 128 µg/mL (≈ 134 µM) | 128 µg/mL (≈ 134 µM) |  |  |
| CC[C@H](C)[C@H](NC(=O)[C@H](CCCNC(=N)N)NC(=O)[C@H](CCCNC(=N)N)NC(=O)[C@H](CC(C)C)NC(=O)[C@@H](N)Cc1ccccc1)C(=O)N[C@@H](CCCNC(=N)N)C(=O)N[C@H](C(=O)N[C@H](C(=O)N1CCC[C@H]1C(=O)N[C@@H](Cc1c[nH]c2ccccc12)C(=O)N[C@H](C(=O)N[C@@H](CC(N)=O)C(=O)N1CCC[C@H]1C(=O)N1CCC[C@H]1C(=O)N[C@@H](Cc1ccccc1)C(=O)N[C@@H](CC(C)C)C(=O)N[C@@H](CCC(N)=O)C(=O)N[C@@H](CCC(N)=O)C(=O)N[C@H](C(N)=O)[C@@H](C)O)C(C)C)[C@@H](C)O)C(C)C [FLRRIRVTPWVNPPFLQQT-NH2] (H-FLRRIRVTPWVNPPFLQQT-NH2) | 256 µg/mL (≈ 108 µM) | 128 µg/mL (≈ 54.1 µM) |  |  |
| CC[C@H](C)[C@H](NC(=O)[C@H](CCCNC(=N)N)NC(=O)[C@H](CCCNC(=N)N)NC(=O)[C@H](Cc1c[nH]c2ccccc12)NC(=O)[C@@H](N)Cc1ccccc1)C(=O)N[C@@H](CCCNC(=N)N)C(=O)N[C@H](C(N)=O)C(C)C [FWRRIRV-NH2] (H-FWRRIRV-NH2) | 64 µg/mL (≈ 62.1 µM) | 32 µg/mL (≈ 31 µM) | 128 µg/mL (≈ 124 µM) |  |
| CC[C@H](C)[C@H](NC(=O)[C@H](CCCNC(=N)N)NC(=O)[C@H](CCCNC(=N)N)NC(=O)[C@H](Cc1c[nH]c2ccccc12)NC(=O)[C@@H](N)Cc1ccccc1)C(=O)N[C@@H](CCCNC(=N)N)C(=O)N[C@H](C(=O)N[C@H](C(=O)N1CCC[C@H]1C(=O)N[C@H](C(=O)N[C@H](C(=O)N[C@@H](CC(N)=O)C(=O)N1CCC[C@H]1C(=O)N1CCC[C@H]1C(=O)N[C@@H](Cc1ccccc1)C(=O)N[C@@H](CC(C)C)C(=O)N[C@@H](CCC(N)=O)C(=O)N[C@@H](CCC(N)=O)C(=O)N[C@H](C(N)=O)[C@@H](C)O)C(C)C)C(C)C)[C@@H](C)O)C(C)C [FWRRIRVTPVVNPPFLQQT-NH2] (H-FWRRIRVTPVVNPPFLQQT-NH2) | 256 µg/mL (≈ 109 µM) | 256 µg/mL (≈ 109 µM) |  |  |
| CC[C@H](C)[C@H](NC(=O)[C@H](CCCNC(=N)N)NC(=O)[C@H](CCCNC(=N)N)NC(=O)[C@H](Cc1c[nH]c2ccccc12)NC(=O)[C@@H](N)Cc1ccccc1)C(=O)N[C@@H](CCCNC(=N)N)C(=O)N[C@H](C(=O)N[C@H](C(=O)N1CCC[C@H]1C(=O)N[C@H](C(=O)N[C@H](C(=O)N[C@@H](CC(N)=O)C(=O)N1CCC[C@H]1C(=O)N[C@@H](Cc1c[nH]c2ccccc12)C(=O)N[C@@H](Cc1ccccc1)C(=O)N[C@@H](CC(C)C)C(=O)N[C@@H](CCC(N)=O)C(=O)N[C@@H](CCC(N)=O)C(=O)N[C@H](C(N)=O)[C@@H](C)O)C(C)C)C(C)C)[C@@H](C)O)C(C)C [FWRRIRVTPVVNPWFLQQT-NH2] (H-FWRRIRVTPVVNPWFLQQT-NH2) | 32 µg/mL (≈ 13.1 µM) | 32 µg/mL (≈ 13.1 µM) | 64 µg/mL (≈ 26.2 µM) | MIC Escherichia coli ([3]; CMCC(B) 44102, 24 h): 256 µg/mL (≈ 105 µM); MIC Pseudomonas aeruginosa ([4]; CMCC(B)10104, 24 h): 256 µg/mL (≈ 105 µM) |
| CC[C@H](C)[C@H](NC(=O)[C@H](CCCNC(=N)N)NC(=O)[C@H](CCCNC(=N)N)NC(=O)[C@H](Cc1c[nH]c2ccccc12)NC(=O)[C@@H](N)Cc1ccccc1)C(=O)N[C@@H](CCCNC(=N)N)C(=O)N[C@H](C(=O)N[C@H](C(=O)N1CCC[C@H]1C(=O)N[C@@H](Cc1c[nH]c2ccccc12)C(=O)N[C@H](C(=O)N[C@@H](CC(N)=O)C(=O)N1CCC[C@H]1C(=O)N1CCC[C@H]1C(=O)N[C@@H](Cc1ccccc1)C(=O)N[C@@H](CC(C)C)C(=O)N[C@@H](CCC(N)=O)C(=O)N[C@@H](CCC(N)=O)C(=O)N[C@H](C(N)=O)[C@@H](C)O)C(C)C)[C@@H](C)O)C(C)C [FWRRIRVTPWVNPPFLQQT-NH2] (H-FWRRIRVTPWVNPPFLQQT-NH2) | 64 µg/mL (≈ 26.2 µM) | 64 µg/mL (≈ 26.2 µM) | 256 µg/mL (≈ 105 µM) |  |
| CC(C)C[C@H](NC(=O)[C@H](Cc1ccccc1)NC(=O)[C@@H]1CCCN1C(=O)[C@@H]1CCCN1C(=O)[C@H](CC(N)=O)NC(=O)[C@@H](NC(=O)[C@@H](NC(=O)[C@@H]1CCCN1C(=O)[C@@H](N)[C@@H](C)O)C(C)C)C(C)C)C(=O)N[C@@H](CCC(N)=O)C(=O)N[C@@H](CCC(N)=O)C(=O)N[C@H](C(N)=O)[C@@H](C)O [TPVVNPPFLQQT-NH2, reference compound] (H-TPVVNPPFLQQT-NH2) |  | 512 µg/mL (≈ 382 µM) |  |  |
| FLRRIRVTPVVNPPFLQQT-NH2 |  |  |  | MIC Staphylococcus aureus ([1]; CMCC(B)26003, broth microdilution, LB broth, ~1.0 × 10^5 CFU/ml, 0.5 to 512.0 μg/ml, 37 °C, 24 h, OD600, performed three times): — (“—” indicates that the peptide is inactive at 512 μg/ml.); MIC Bacillus subtilis ([2]; CMCC(B)63501, broth microdilution, LB broth, ~1.0 × 10^5 CFU/ml, 0.5 to 512.0 μg/ml, 37 °C, 24 h, OD600, performed three times): — (“—” indicates that the peptide is inactive at 512 μg/ml.); MIC Escherichia coli ([3]; CMCC(B) 44102, broth microdilution, LB broth, ~1.0 × 10^5 CFU/ml, 0.5 to 512.0 μg/ml, 37 °C, 24 h, OD600, performed three times): — (“—” indicates that the peptide is inactive at 512 μg/ml.); MIC Pseudomonas aeruginosa ([4]; CMCC(B)10104, broth microdilution, LB broth, ~1.0 × 10^5 CFU/ml, 0.5 to 512.0 μg/ml, 37 °C, 24 h, OD600, performed three times): — (“—” indicates that the peptide is inactive at 512 μg/ml.); MIC Listeria monocytogenes ([5]; ATCC 19115, broth microdilution, LB broth, ~1.0 × 10^5 CFU/ml, 0.5 to 512.0 μg/ml, 37 °C, 24 h, OD600, performed three times): — (“—” indicates that the peptide is inactive at 512 μg/ml.); MIC Enterococcus faecalis [6]: — (“—” indicates that the peptide is inactive at 512 μg/ml.) |
